Reference: patent US20180303809A1, “TREATMENT OF BURN PAIN BY TRPV1 MODULATORS” (Purdue Pharma L.P., priority 2013, published 2018)

Key:
Type in all cases: in vivo, rat
male Sprague-Dawley rats [1] = test: Paw pressure assay, mechanical hyperalgesia (PWT) in thermal burn pain model; conditions: rat burn injury 55° C. 24 s, 10 mg/kg PO
Protocol: (§1) Test Animals: Each experiment used male Sprague-Dawley rats weighing between 190-260 g at the time of thermal burn injury. The rats were housed two per cage, and were allowed to acclimate to their environment for at least six days before testing began. The rats had free access to food and water at all times, except during testing and prior to oral (PO) administration of a test compound, when food was removed about 16 hours before dosing. The rats were divided into treatment groups, and one of the following compounds was administered to each group at the dose and by the route of administration indicated in Tables 5.2A to 5.2C, 5.3A and 5.3B, and 5.4A and 5.4B: ketorolac (Sigma-Aldrich, St. Louis, Mo.), AMG 517 (selective TRPV1 antagonist described in Em. Doherty et al., “Novel vanilloid receptor-1 antagonists:2. Structure-activity relationships of 4-oxopyrimidines leading to the selection of a clinical candidate,” J Med Chem 50:3515-3527 (2007).) (Purdue Pharma L. P., Cranbury, N.J.), indomethacin (Alexis Biochemicals, Farmingdale, N.Y.), gabapentin (Bosche Scientific, New Brunswick, N.J.), or (S)-3-chloro-5-(1,2-dihydroxyethyl)-N-(5-(trifluoromethyl)pyridin-2-yl)-5′,6′-dihydro-[2,4′-bipyridine]-1′(2′H)-carboxamide (Compound 1). The control groups were administered the vehicle for the compound of formula (I). The volume of administration for PO treatment was 5 ml/kg, and was the same for all treatment groups. Volume of administration for intraperitoneal (i.p.) drug administration was 2 ml/kg.
(§2) To assess the actions of a compound of formula (I) for the treatment or prevention of burn pain, a model of thermal burn pain was used. A thermal burn injury was induced under isofluorane/O2 inhalation anesthesia. To assess mechanical hyperalgesia and weight bearing, a thermal injury was produced by immersing the left hind paw into water maintained at 55° C. for 24 seconds. The left hind paw of non-injured control animals was immersed in 22° C. water for 24 seconds. To assess thermal hyperalgesia, a thermal injury was produced by immersing the left hindpaw into water maintained at 50° C. for 48 seconds; the left hind-paw of non-injured control animals was immersed in 22° C. water for 48 seconds. The animals were assessed for response to noxious mechanical stimuli by determining PWT for mechanical hyperalgesia, weight bearing difference between the injured or non-injured side, or response to noxious thermal stimuli by determining PWL for thermal hyperalgesia, all as described below, prior to drug administration (baseline), then again at 1, 3 and 5 hours after induction of burn injury.
The paw pressure assay was used to assess mechanical hyperalgesia. For this assay, hind paw withdrawal thresholds (PWT) to a noxious mechanical stimulus were determined using an analgesimeter (Model 7200, commercially available from Ugo Basile of Italy) as described in C. Stein, “Unilateral Inflammation of the Hindpaw in Rats as a Model of Prolonged Noxious Stimulation: Alterations in Behavior and Nociceptive Thresholds,” Pharmacol. Biochem. and Behavior 31:451-455 (1988). The rat's paw was placed on a small platform, and weight was applied in a graded manner up to a maximum of 250 grams. The endpoint was taken as the weight at which the paw was completely withdrawn. PWT was determined once for each rat at each time point, wherein the affected (ipsilateral; same side as the injury) rear paw was tested. […] All drug treatment groups were compared to the vehicle control group (i.e. injured, administered only the vehicle).

male Sprague-Dawley rats [2] = test: Plantar test, thermal hyperalgesia (PWL) in thermal burn pain model; conditions: rat burn injury 50° C. 48 s
Protocol: as §1, §2
The plantar test was used to assess thermal hyperalgesia. For this test, hind paw withdrawal latencies (PWL) to a noxious thermal stimulus were determined using a plantar test apparatus (commercially available from Ugo Basile of Italy) following the technique described by K. Hargreaves et al., “A New and Sensitive Method for Measuring Thermal Nociception in Cutaneous Hyperalgesia,” Pain 32(1):77-88 (1988). The maximum exposure time was set at 32 seconds to avoid tissue damage and any directed paw withdrawal from the heat source is taken as the end point. Three latencies were determined at each time point and averaged.

male Sprague-Dawley rats [3] = test: Hind limb weight bearing (incapacitance meter, % WL) in thermal burn pain model; conditions: rat burn injury 55° C. 24 s, 10 mg/kg PO
Protocol: as §1, §2
A commercially available incapacitance meter was used to determine the weight distribution on the two hind paws of the animal (Linton Incapacitance Tester (Linton Instrumentation, Norfolk, UK)). The weight bearing difference (WBD) between the injured and non-injured hindpaw was measured. The animal was placed in the testing chamber that allows the animal to stand normally, distributing its body weight on the hind limbs for the test. Each hind paw was positioned on a separate pressure sensitive pad, which independently measures the pressure applied by each limb. The device continuously collects data after either a force threshold has been exceeded, or the investigator depresses the start pad. Rats were allowed to acclimate when placed on the apparatus, and when they were stationary, the force exerted was then continuously monitored for 3 s. The endpoint was the amount of pressure applied to each limb over time. Three readings were taken for each rat at each time point, and the average used for data analysis. WBD was expressed as “% WL”, i.e. the percentage of weight borne on the burn-injured left hind paw, using the following formula: […]
where WLP is the weight on the left hind paw and WRP is the weight on the right (untreated) hind paw. The 50% value of % WL corresponds to an equal weight distribution across both hind paws. […]

[4] = baseline (prior to drug administration)
[5] = 10 mg/kg PO, 1 h after administration
[6] = 10 mg/kg PO, 3 h after administration
[7] = 10 mg/kg PO, 5 h after administration
[8] = 30 mg/kg PO, 1 h after administration
[9] = 30 mg/kg PO, 3 h after administration
[10] = 30 mg/kg PO, 5 h after administration

SMILES: O=C(c1ccccc1)c1ccc2n1CCC2C(=O)O (stereo not shown) [Ketorolac, ketorolac]
- % Decrease from Baseline (mean ± S.E.M.) of Paw Withdrawal Threshold (male Sprague-Dawley rats [1]; 1 h after administration): 66 ± 2.2%
- Paw Withdrawal Threshold (g) (mean ± S.E.M.) (male Sprague-Dawley rats [1]; 1 h after administration): 84 ± 6.1 g
- % Decrease from Baseline (mean ± S.E.M.) of Paw Withdrawal Threshold (male Sprague-Dawley rats [1]; 3 h after administration): 60 ± 3.8%
- Paw Withdrawal Threshold (g) (mean ± S.E.M.) (male Sprague-Dawley rats [1]; 3 h after administration): 97 ± 7.5 g
- % Decrease from Baseline (mean ± S.E.M.) of Paw Withdrawal Threshold (male Sprague-Dawley rats [1]; 5 h after administration): 63 ± 34%
- Paw Withdrawal Threshold (g) (mean ± S.E.M.) (male Sprague-Dawley rats [1]; 5 h after administration): 91 ± 7.1 g
- Paw Withdrawal Threshold (g) (mean ± S.E.M.) (male Sprague-Dawley rats [1]; [4]): 246 ± 4.5 g
- % Change from Baseline (mean ± S.E.M.) of Paw Withdrawal Latency (male Sprague-Dawley rats [2]; [5]): −22.3 ± 6.30%
- Paw Withdrawal Latency (sec) (mean ± S.E.M.) (male Sprague-Dawley rats [2]; [5]): 9.2 ± 0.96 s
- % Change from Baseline (mean ± S.E.M.) of Paw Withdrawal Latency (male Sprague-Dawley rats [2]; [6]): −6.7 ± 5.55%
- Paw Withdrawal Latency (sec) (mean ± S.E.M.) (male Sprague-Dawley rats [2]; [6]): 11.9 ± 1.27 s
- % Change from Baseline (mean ± S.E.M.) of Paw Withdrawal Latency (male Sprague-Dawley rats [2]; [7]): −10.2 ± 3.05%
- Paw Withdrawal Latency (sec) (mean ± S.E.M.) (male Sprague-Dawley rats [2]; [7]): 11.4 ± 0.54 s
- Paw Withdrawal Latency (sec) (mean ± S.E.M.) (male Sprague-Dawley rats [2]; 10 mg/kg PO, baseline (prior to drug administration)): 13.2 ± 0.72 s
- % Change from Baseline (mean ± S.E.M.) of Paw Withdrawal Latency (male Sprague-Dawley rats [2]; [8]): −47.6 ± 19.35%
- Paw Withdrawal Latency (sec) (mean ± S.E.M.) (male Sprague-Dawley rats [2]; [8]): 8.5 ± 0.89 s
- % Change from Baseline (mean ± S.E.M.) of Paw Withdrawal Latency (male Sprague-Dawley rats [2]; [9]): −24.0 ± 19.85%
- Paw Withdrawal Latency (sec) (mean ± S.E.M.) (male Sprague-Dawley rats [2]; [9]): 12.6 ± 1.33 s
- % Change from Baseline (mean ± S.E.M.) of Paw Withdrawal Latency (male Sprague-Dawley rats [2]; [10]): −10.2 ± 12.40%
- Paw Withdrawal Latency (sec) (mean ± S.E.M.) (male Sprague-Dawley rats [2]; [10]): 14.3 ± 0.80 s
- Paw Withdrawal Latency (sec) (mean ± S.E.M.) (male Sprague-Dawley rats [2]; 30 mg/kg PO, baseline (prior to drug administration)): 14.7 ± 1.29 s
- % WL (mean ± S.E.M.), percentage of weight borne on the burn-injured left hind paw (male Sprague-Dawley rats [3]; 1 h after administration): 50.0 ± 2.20 %
- % WL (mean ± S.E.M.), percentage of weight borne on the burn-injured left hind paw (male Sprague-Dawley rats [3]; 3 h after administration): 42.6 ± 1.91%
- % WL (mean ± S.E.M.), percentage of weight borne on the burn-injured left hind paw (male Sprague-Dawley rats [3]; 5 h after administration): 40.1 ± 2.72%
- % WL (mean ± S.E.M.), percentage of weight borne on the burn-injured left hind paw (male Sprague-Dawley rats [3]; [4]): 49.8 ± 0.31%
